# How the values were obtained:
# [1] = test system: cotton; assay: Test G preemergence test; format: in vivo, Gossypium hirsutum; conditions: scale 0 to 100
# [2] = test system: field sandbur; assay: Test G preemergence test; format: in vivo, Cenchrus incertus; conditions: scale 0 to 100
# [3] = test system: winter barley; assay: Test C postemergence test; format: in vivo, Hordeum vulgare; conditions: for Plant response rating, Barley: scale 0 to 100, 0 no effect, 100 complete control
# Summary of the method: (§1)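 Postemergence sprays of formulated test chemicals on plants 2 to 18 cm tall (1- to 4-leaf stage). Greenhouse hold for 13 to 15 days, then visual rating of each species against untreated controls; dash means no test result.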
# [4] = test system: yellow nutsedge; assay: Test G preemergence test; format: in vivo, Cyperus esculentus; conditions: scale 0 to 100
# [5] = test system: Russian thistle; assay: Test F preemergence test; format: in vivo, Salsola kali; conditions: scale 0 to 100
# Summary of the method: (§2)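 Visual ratings relative to controls, taken after 14 to 21 days in a greenhouse. Test chemicals, formulated in a surfactant-containing non-phytotoxic solvent mixture, were applied preemergence to sown seeds or postemergence to sugarcane plants.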
# [6] = test system: millet foxtail; assay: Test G preemergence test; format: in vivo, Setaria italica; conditions: scale 0 to 100
# [7] = test system: chickweed; assay: Test C postemergence test; format: in vivo, Stellaria media; conditions: for Plant response rating, Chickweed: scale 0 to 100, 0 no effect, 100 complete control
# Summary of the method: as §1
# [8] = test system: common sowthistle; assay: Test F preemergence test; format: in vivo, Sonchus oleraceous; conditions: scale 0 to 100
# Summary of the method: as §2
# [9] = test system: canarygrass; assay: Test C postemergence test; format: in vivo, Phalaris minor; conditions: for Plant response rating, Canarygrass: scale 0 to 100, 0 no effect, 100 complete control
# Summary of the method: as §1
# [10] = test system: winter barley; assay: Test D preemergence test; format: in vivo, Hordeum vulgare
# Source text: (§3) Seeds of plant species selected from annual bluegrass (Poa annua), blackgrass (Alopecurus myosuroides), downy bromegrass (Bromus tectorum), field violet (Viola arvensis), green foxtail (Setaria viridis), Italian ryegrass (Lolium multiflorum), littleseed canarygrass (Phalaris minor), spring wheat (Triticum aestivum), wild oat (Avena fatua), […]), winter barley (Hordeum vulgare), and winter wheat (Triticum aestivum) were planted and treated preemergence with test chemicals formulated in a non-phytotoxic solvent mixture which included a surfactant. […] A dash (-) response means no test result.
# [11] = test system: littleseed canarygrass; assay: Test D preemergence test; format: in vivo, Phalaris minor; conditions: scale 0 to 100
# Source text: as §3
# [12] = test system: windgrass; assay: Test C pre-/postemergence test; format: in vivo, Apera spica-venti; conditions: Postemergence; for Plant response rating, Windgrass: scale 0 to 100, 0 no effect, 100 complete control
smiles,measurement,setting,value
Cc1cc[n+]([O-])c([S+]([O-])Cc2c(C(F)(F)F)nn(C)c2OC(F)F)c1 (centres unmarked) [Compound 1],"Plant response rating, Cotton",[1]; 31 g ai/ha,0
same,"Plant response rating, Cotton",[1]; 62 g ai/ha,10
same,"Plant response rating, Cotton",[1]; 125 g ai/ha,15
same,"Plant response rating, Cotton",[1]; 250 g ai/ha,20
same,"Plant response rating, Sandbur",[2]; 31 g ai/ha,0
same,"Plant response rating, Sandbur",[2]; 62 g ai/ha,40
same,"Plant response rating, Sandbur",[2]; 125 g ai/ha,65
same,"Plant response rating, Sandbur",[2]; 250 g ai/ha,100
same,"Plant response rating (0 to 100), Barley",[3]; 31 g ai/ha,0
same,"Plant response rating, Barley",[3]; 62 g ai/ha,0
same,"Plant response rating, Barley",[3]; 125 g ai/ha,0
same,"Plant response rating, Barley",[3]; 250 g ai/ha,0
same,"Plant response rating, Nutsedge, Yellow",[4]; 31 g ai/ha,0
same,"Plant response rating, Nutsedge, Yellow",[4]; 62 g ai/ha,35
same,"Plant response rating, Nutsedge, Yellow",[4]; 125 g ai/ha,75
same,"Plant response rating, Nutsedge, Yellow",[4]; 250 g ai/ha,40
same,"Plant response rating, Russian Thistle","[5]; 8 g ai/ha, preemergence",0
same,"Plant response rating, Russian Thistle","[5]; Preemergence, 16 g ai/ha",0
same,"Plant response rating, Russian Thistle","[5]; Preemergence, 31 g ai/ha",0
same,"Plant response rating, Foxtail, Millet",[6]; 31 g ai/ha,0
same,"Plant response rating, Foxtail, Millet",[6]; 62 g ai/ha,100
same,"Plant response rating, Foxtail, Millet",[6]; 125 g ai/ha,100
same,"Plant response rating, Foxtail, Millet",[6]; 250 g ai/ha,100
same,"Plant response rating (0 to 100), Chickweed",[7]; 31 g ai/ha,50
same,"Plant response rating, Chickweed",[7]; 62 g ai/ha,65
same,"Plant response rating, Chickweed",[7]; 125 g ai/ha,90
same,"Plant response rating, Chickweed",[7]; 250 g ai/ha,90
same,"Plant response rating, Sowthistle","[8]; 8 g ai/ha, preemergence",0
same,"Plant response rating, Sowthistle","[8]; 16 g ai/ha, preemergence",0
same,Sowthistle plant response rating,"[8]; 62 g ai/ha, Preemergence",70
same,"Plant response rating, Sowthistle","[8]; Preemergence, 31 g ai/ha",30
same,"Plant response rating (0 to 100), Canarygrass",[9]; 31 g ai/ha,0
same,"Plant response rating, Canarygrass",[9]; 62 g ai/ha,0
same,"Plant response rating, Canarygrass",[9]; 125 g ai/ha,0
same,"Plant response rating, Canarygrass",[9]; 250 g ai/ha,0
same,"Plant response rating, Barley","[10]; Preemergence, 62 g ai/ha, scale 0 to 100",0
same,"Plant response rating, Barley","[10]; Preemergence, 125 g ai/ha, scale 0 to 100",40
same,"Plant response rating, Barley","[10]; Preemergence, 31 g ai/ha, scale 0 to 100",0
same,"Plant response rating, Barley","[10]; preemergence, 250 g ai/ha, scale 0 (no effect) to 100 (complete control)",50
same,"Plant response rating, Canarygrass",[11]; 31 g ai/ha,0
same,"Plant response rating, Canarygrass",[11]; 62 g ai/ha,100
same,"Plant response rating, Canarygrass",[11]; 125 g ai/ha,80
same,"Plant response rating, Canarygrass",[11]; 250 g ai/ha,100
same,"Plant response rating (0 to 100), Windgrass",[12]; 31 g ai/ha,0
same,"Plant response rating (0 to 100), Windgrass",[12]; 62 g ai/ha,10
same,"Plant response rating, Windgrass",[12]; 125 g ai/ha,60
same,"Plant response rating, Windgrass",[12]; 250 g ai/ha,85
